Results as given in article PMC4584933, “Establishing the pig as a large animal model for vaccine development against human cancer” (Frontiers in Genetics, 2015).

Legend:
SLA-2*04:01 = assay: Peptide-MHC class I complex stability, scintillation proximity assay (SPA); design: species or system pig; details: biotinylated recombinant SLA heavy chain, 125I-β2m, excess unlabeled β2m, read every 40 min, number only if t1/2 ≥ 0.5 h, '-' = not stably binding
Method: (§1) The stability of the selected 198 peptides in complex with relevant SLA class I molecules and β2m was determined using a scintillation proximity assay (SPA), as previously described (Harndahl et al., [2011]). Briefly, biotinylated recombinant MHC class I heavy chains were attached to a streptavidin-coated scintillation microplate together with iodinated (^125I) β2m and candidate peptide resulting in a scintillation signal, which was consecutively measured every 40 min by a scintillation plate counter. The duration of this signal is directly correlated to the stability of the peptide-MHC class I-β2m complex under dissociating conditions and in the presence of excess unlabeled β2m (Harndahl et al., [2011]). Peptides with a half-life ≥ 0.5 h were selected as stable binders.

PBMCs = assay: In vitro peptide stimulation of porcine PBMCs, IFN-γ release assay (ELISA); format: cell-based, pig; design: key to T cell response: “x” indicates that a response was found to this given peptide at least once; details: for T cell response: PBMCs of immunized pigs, 2 × 10^5/well, 5 μg/ml peptide, 67.5–70.0 h, IFN-γ ELISA, response = 2-fold increase vs day -2 and at least 25 pg/ml IFN-γ, found at least once, SLA restriction not included
SLA-3*04:01 = assay: Peptide-MHC class I complex stability, scintillation proximity assay (SPA); design: species or system pig; details: biotinylated recombinant SLA heavy chain, 125I-β2m, excess unlabeled β2m, read every 40 min, number only if t1/2 ≥ 0.5 h, '-' = not stably binding
Method: as §1

“AGFLQEMRTY [IDO1, porcine IDO-derived 9-11mer peptide]” was tested, and the “Binder (t1/2 ≥ 0.5 h): half-life of peptide-SLA-2*04:01 complex” value (from here on “Binder … of peptide-SLA-2*04:01 complex”) (SLA-2*04:01) was 0.6 h and the T cell response (PBMCs) was “x”.
“ANRISAFGYL [RhoC3, porcine RhoC-derived 9-11mer peptide]” was tested, and the “Binder (t1/2 ≥ 0.5 h): half-life of peptide-SLA-3*04:01 complex” value (“Binder … of peptide-SLA-3*04:01 complex” below) (SLA-3*04:01) was “- (t1/2 (hours) is listed for each of the stably binding peptides (t1/2 ≥ 0.5 h))”.
“ANRISAFGYLE [RhoC4, porcine RhoC-derived 9-11mer peptide]” was tested, and the “Binder … of peptide-SLA-3*04:01 complex” value (SLA-3*04:01) was “- (t1/2 (hours) is listed for each of the stably binding peptides (t1/2 ≥ 0.5 h))”.
For “ANWKKKDPS [IDO6, porcine IDO-derived 9-11mer peptide]”, the “Binder … of peptide-SLA-3*04:01 complex” value (SLA-3*04:01) was “- (t1/2 (hours) is listed for each of the stably binding peptides (t1/2 ≥ 0.5 h))”.
In the case of “DNSWKIFEEY [IDO11, porcine IDO-derived 9-11mer peptide]”, the “Binder … of peptide-SLA-2*04:01 complex” value (SLA-2*04:01) is reported as “- (t1/2 (hours) is listed for each of the stably binding peptides (t1/2 ≥ 0.5 h))”.
For “DSLENIPEKW [RhoC9, porcine RhoC-derived 9-11mer peptide]”, the “Binder … of peptide-SLA-2*04:01 complex” value (SLA-2*04:01) was “- (t1/2 (hours) is listed for each of the stably binding peptides (t1/2 ≥ 0.5 h))”.
“DWWSPMDNSW [IDO13, porcine IDO-derived 9-11mer peptide]” was tested, and the “Binder … of peptide-SLA-2*04:01 complex” value (SLA-2*04:01) was “- (t1/2 (hours) is listed for each of the stably binding peptides (t1/2 ≥ 0.5 h))”.
With “EKLGLPPILVY [IDO17, porcine IDO-derived 9-11mer peptide]” the “Binder … of peptide-SLA-2*04:01 complex” value (SLA-2*04:01) was “- (t1/2 (hours) is listed for each of the stably binding peptides (t1/2 ≥ 0.5 h))”.
With “ENYIADIEVD [RhoC19, porcine RhoC-derived 9-11mer peptide]” the “Binder … of peptide-SLA-2*04:01 complex” value (SLA-2*04:01) was “- (t1/2 (hours) is listed for each of the stably binding peptides (t1/2 ≥ 0.5 h))”.
“FALPNPLEEL [IDO22, porcine IDO-derived 9-11mer peptide]” was tested, and the “Binder … of peptide-SLA-2*04:01 complex” value (SLA-2*04:01) was 0.5 h and the T cell response (PBMCs) was “x”.
With “FNAIQCEDL [IDO26, porcine IDO-derived 9-11mer peptide]” the “Binder … of peptide-SLA-2*04:01 complex” value (SLA-2*04:01) was 0.6 h and the T cell response (PBMCs) was “x”.
With “FNVLRIYLS [IDO27, porcine IDO-derived 9-11mer peptide]” the “Binder … of peptide-SLA-3*04:01 complex” value (SLA-3*04:01) was “- (t1/2 (hours) is listed for each of the stably binding peptides (t1/2 ≥ 0.5 h))”.
In the case of “FNVLRIYLSG [IDO28, porcine IDO-derived 9-11mer peptide]”, the “Binder … of peptide-SLA-3*04:01 complex” value (SLA-3*04:01) is reported as “- (t1/2 (hours) is listed for each of the stably binding peptides (t1/2 ≥ 0.5 h))”.
With “FNVLRIYLSGW [IDO29, porcine IDO-derived 9-11mer peptide]” the “Binder … of peptide-SLA-2*04:01 complex” value (SLA-2*04:01) was 33.6 h and the T cell response (PBMCs) was “x”.
With “FSKDQFPEVY [RhoC26, porcine RhoC-derived 9-11mer peptide]” the “Binder … of peptide-SLA-2*04:01 complex” value (SLA-2*04:01) was “- (t1/2 (hours) is listed for each of the stably binding peptides (t1/2 ≥ 0.5 h))”.
In the case of “HKMQRLAHLVL [IDO37, porcine IDO-derived 9-11mer peptide]”, the “Binder … of peptide-SLA-3*04:01 complex” value (SLA-3*04:01) is reported as “- (t1/2 (hours) is listed for each of the stably binding peptides (t1/2 ≥ 0.5 h))”.
With “KALLDITSSL [IDO46, porcine IDO-derived 9-11mer peptide]” the “Binder … of peptide-SLA-3*04:01 complex” value (SLA-3*04:01) was “- (t1/2 (hours) is listed for each of the stably binding peptides (t1/2 ≥ 0.5 h))”.
“KDPSGPMTY [IDO47, porcine IDO-derived 9-11mer peptide]” was tested, and the “Binder … of peptide-SLA-3*04:01 complex” value (SLA-3*04:01) was “- (t1/2 (hours) is listed for each of the stably binding peptides (t1/2 ≥ 0.5 h))”.
For “KEGVREVFEM [RhoC27, porcine RhoC-derived 9-11mer peptide]”, the “Binder … of peptide-SLA-3*04:01 complex” value (SLA-3*04:01) was “- (t1/2 (hours) is listed for each of the stably binding peptides (t1/2 ≥ 0.5 h))”.
For “KGFFLVSLLV [IDO50, porcine IDO-derived 9-11mer peptide]”, the “Binder … of peptide-SLA-3*04:01 complex” value (SLA-3*04:01) was “- (t1/2 (hours) is listed for each of the stably binding peptides (t1/2 ≥ 0.5 h))”.
“KHFCPNVPI [RhoC28, porcine RhoC-derived 9-11mer peptide]” was tested, and the “Binder … of peptide-SLA-3*04:01 complex” value (SLA-3*04:01) was “- (t1/2 (hours) is listed for each of the stably binding peptides (t1/2 ≥ 0.5 h))”.
With “KHFCPNVPII [RhoC29, porcine RhoC-derived 9-11mer peptide]” the “Binder … of peptide-SLA-3*04:01 complex” value (SLA-3*04:01) was “- (t1/2 (hours) is listed for each of the stably binding peptides (t1/2 ≥ 0.5 h))”.
For “KHFCPNVPIIL [RhoC30, porcine RhoC-derived 9-11mer peptide]”, the “Binder … of peptide-SLA-3*04:01 complex” value (SLA-3*04:01) was “- (t1/2 (hours) is listed for each of the stably binding peptides (t1/2 ≥ 0.5 h))”.
With “KLFFNVLRI [IDO52, porcine IDO-derived 9-11mer peptide]” the “Binder … of peptide-SLA-3*04:01 complex” value (SLA-3*04:01) was “- (t1/2 (hours) is listed for each of the stably binding peptides (t1/2 ≥ 0.5 h))”.
For “KLFFNVLRIYL [IDO54, porcine IDO-derived 9-11mer peptide]”, the “Binder … of peptide-SLA-3*04:01 complex” value (SLA-3*04:01) was “- (t1/2 (hours) is listed for each of the stably binding peptides (t1/2 ≥ 0.5 h))”.
In the case of “LDWWSPMDNSW [IDO64, porcine IDO-derived 9-11mer peptide]”, the “Binder … of peptide-SLA-2*04:01 complex” value (SLA-2*04:01) is reported as “- (t1/2 (hours) is listed for each of the stably binding peptides (t1/2 ≥ 0.5 h))”.
For “LGYITMAYVW [IDO66, porcine IDO-derived 9-11mer peptide]”, the “Binder … of peptide-SLA-2*04:01 complex” value (SLA-2*04:01) was 4.9 h and the T cell response (PBMCs) was “x”.
For “LSEGLLYEGVW [IDO71, porcine IDO-derived 9-11mer peptide]”, the “Binder … of peptide-SLA-2*04:01 complex” value (SLA-2*04:01) was 4.4 h and the T cell response (PBMCs) was “x”.
In the case of “LVYADCVLANW [IDO74, porcine IDO-derived 9-11mer peptide]”, the “Binder … of peptide-SLA-2*04:01 complex” value (SLA-2*04:01) is reported as “- (t1/2 (hours) is listed for each of the stably binding peptides (t1/2 ≥ 0.5 h))”.
In the case of “MDNSWKIFEEY [IDO76, porcine IDO-derived 9-11mer peptide]”, the “Binder … of peptide-SLA-2*04:01 complex” value (SLA-2*04:01) is reported as 1.9 h and the T cell response (PBMCs) is reported as “x”.
For “NSWKIFEEYH [IDO90, porcine IDO-derived 9-11mer peptide]”, the “Binder … of peptide-SLA-2*04:01 complex” value (SLA-2*04:01) was “- (t1/2 (hours) is listed for each of the stably binding peptides (t1/2 ≥ 0.5 h))”.
In the case of “NYHLQIVTKY [IDO93, porcine IDO-derived 9-11mer peptide]”, the “Binder … of peptide-SLA-2*04:01 complex” value (SLA-2*04:01) is reported as “- (t1/2 (hours) is listed for each of the stably binding peptides (t1/2 ≥ 0.5 h))”.
With “SSLHKALEVF [IDO121, porcine IDO-derived 9-11mer peptide]” the “Binder … of peptide-SLA-2*04:01 complex” value (SLA-2*04:01) was “- (t1/2 (hours) is listed for each of the stably binding peptides (t1/2 ≥ 0.5 h))”.
“Staphylococcal Enterotoxin B [SEB, reference compound]” was tested, and the “IFN-γ in positive control cultures” value (PBMCs) was greater than 70 pg/mL.
In the case of “TYMPPAHRNF [IDO124, porcine IDO-derived 9-11mer peptide]”, the “Binder … of peptide-SLA-2*04:01 complex” value (SLA-2*04:01) is reported as 4.7 h and the T cell response (PBMCs) is reported as “x”.
In the case of “VDGKQVELALW [RhoC52, porcine RhoC-derived 9-11mer peptide]”, the “Binder … of peptide-SLA-2*04:01 complex” value (SLA-2*04:01) is reported as 0.5 h and the T cell response (PBMCs) is reported as “x”.
For “VFSKDQFPEVY [RhoC53, porcine RhoC-derived 9-11mer peptide]”, the “Binder … of peptide-SLA-2*04:01 complex” value (SLA-2*04:01) was “- (t1/2 (hours) is listed for each of the stably binding peptides (t1/2 ≥ 0.5 h))”.
In the case of “WDTAGQEDY [RhoC55, porcine RhoC-derived 9-11mer peptide]”, the “Binder … of peptide-SLA-2*04:01 complex” value (SLA-2*04:01) is reported as “- (t1/2 (hours) is listed for each of the stably binding peptides (t1/2 ≥ 0.5 h))”.
With “WWSPMDNSW [IDO132, porcine IDO-derived 9-11mer peptide]” the “Binder … of peptide-SLA-2*04:01 complex” value (SLA-2*04:01) was “- (t1/2 (hours) is listed for each of the stably binding peptides (t1/2 ≥ 0.5 h))”.
